# Laboratory results: patent publication US20080161269A1, “Compounds 620” (ASTRAZENECA AB, priority 2006, published 2008)
# Where a name gives a salt, the structure may show the parent alone.
# Biological target: human β-Secretase (Homo sapiens, UniProt P56817)
# Test: TR-FRET assay
# Type: biochemical
# Settings: enzyme (truncated form) 0.3 nM; substrate (Europium)CEVNLDAEFK(Qsy7) 100 nM; pH4.5; 15 minutes at room temperature
# Method: The enzyme used in the IGEN Cleavage-, Fluorescent-, TR-FRET- and the BiaCore assay is described as follows:
# The gene was fused to the Fc domain of IgG1 (affinity tag) and stably cloned into HEK 293 cells. Purified sBACE-Fc is stored in Tris buffer, pH 9.2 and has a purity of 95%.
# Dilute the enzyme (truncated form) to 6 μg/mL (stock 1.3 mg/mL) and the substrate (Europium)CEVNLDAEFK(Qsy7) to 200 nM (stock 60 μM) in reaction buffer (NaAcetate, chaps, triton x-100, EDTA pH4.5). The Biomek FX is used for all liquid handling and the enzyme and substrate solutions are kept on ice until they are placed in Biomek FX. Enzyme (9 μl) is added to the plate then 1 μl of compound in dimethylsulphoxide is added, mixed and pre-incubated for 10 minutes. Substrate (10 μl) is then added, mixed and the reaction proceeds in the dark for 15 minutes at room temperature. The reaction is stopped with the addition of Stop solution (7 μl, NaAcetate pH 9). The fluorescence of the product is measured on a Wallac Victor II plate reader with an excitation wavelength of 340 nm and an emission wavelength of 615 nm. The assay is done in a Costar 384 well round bottom, low volume, non-binding surface (Corning #3676). The final concentration of the enzyme is 0.3 nM; the final concentration of substrate is 100 nM (Km of ˜250 nM). The dimethylsulphoxide control defines the 100% activity level and 0% activity is defined by exclusion of the enzyme, only using reaction buffer instead.
# human β-Secretase, sequence (P56817 22-460): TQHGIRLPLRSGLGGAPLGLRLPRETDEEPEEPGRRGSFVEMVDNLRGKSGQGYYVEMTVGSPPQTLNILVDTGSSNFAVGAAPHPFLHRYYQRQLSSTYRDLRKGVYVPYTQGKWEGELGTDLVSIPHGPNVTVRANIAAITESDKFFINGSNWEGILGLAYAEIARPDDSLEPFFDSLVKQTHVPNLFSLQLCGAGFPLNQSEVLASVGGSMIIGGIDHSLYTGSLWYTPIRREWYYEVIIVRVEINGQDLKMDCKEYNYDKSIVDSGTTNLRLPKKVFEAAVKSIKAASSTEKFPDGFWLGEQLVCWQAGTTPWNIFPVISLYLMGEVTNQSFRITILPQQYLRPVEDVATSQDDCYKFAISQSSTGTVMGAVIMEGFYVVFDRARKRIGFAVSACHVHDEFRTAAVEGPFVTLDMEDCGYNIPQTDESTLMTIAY
row,SMILES,IC50
1,"CN1C(=O)C(c2ccc([Si](C)(C)C)cc2)(c2cccc(-c3cncnc3)c2)N=C1N (racemic) [Example 14, 2-Amino-3-methyl-5-(3-pyrimidin-5-ylphenyl)-5-[4-(trimethylsilyl)phenyl]-3,5-dihydro-4H-imidazol-4-one]",107 nM
2,"CN1C(=O)C(c2ccc([Si](C)(C)C)cc2)(c2cccc(-c3cncnc3)c2)N=C1N (single isomer, unassigned) [Example 15 (isomer 1), 2-amino-3-methyl-5-(3-pyrimidin-5-ylphenyl)-5-[4-(trimethylsilyl)phenyl]-3,5-dihydro-4H-imidazol-4-one]",41 nM
3,"CN1C(=O)C(c2ccc([Si](C)(C)C)cc2)(c2cccc(-c3cncnc3)c2)N=C1N (single isomer, unassigned) [Example 15 (isomer 2), 2-amino-3-methyl-5-(3-pyrimidin-5-ylphenyl)-5-[4-(trimethylsilyl)phenyl]-3,5-dihydro-4H-imidazol-4-one]",> 10000 nM
4,"COc1cccc(-c2cccc(C3(c4ccc([Si](C)(C)C)cc4)N=C(N)N(C)C3=O)c2)c1 (stereo not shown) [Example 12, 2-Amino-5-(3′-methoxybiphenyl-3-yl)-3-methyl-5-[4-(trimethylsilyl)phenyl]-3,5-dihydro-4H-imidazol-4-one]",84 nM
5,"CN1C(=O)C(c2ccc([Si](C)(C)C)cc2)(c2cccc(-c3cccnc3F)c2)N=C1N (stereo not shown) [Example 13, 2-Amino-5-[3-(2-fluoropyridin-3-yl)phenyl]-3-methyl-5-[4-(trimethylsilyl)phenyl]-3,5-dihydro-4H-imidazol-4-one]",81 nM
6,"COc1cncc(-c2cccc(C3(c4ccc([Si](C)(C)C)cc4)N=C(N)N(C)C3=O)c2)c1 (stereo not shown) [Example 16, 2-amino-5-[3-(5-methoxypyridin-3-yl)phenyl]-3-methyl-5-(4-trimethylsilylphenyl)imidazol-4-one acetic acid salt]",23 nM
7,"CN1C(=O)C(c2ccc([Si](C)(C)C)cc2)(c2cccc(-c3cccnc3)c2)N=C1N (stereo not shown) [Example 17, 2-amino-3-methyl-5-(3-pyridin-3-ylphenyl)-5-(4-trimethylsilylphenyl)imidazol-4-one acetic acid salt]",118 nM
8,"CN1C(=O)C(c2ccc([Si](C)(C)C)cc2)(c2cccc(-c3cncc(F)c3)c2)N=C1N (stereo not shown) [Example 18, 2-amino-5-[3-(5-fluoropyridin-3-yl)phenyl]-3-methyl-5-(4-trimethylsilylphenyl)imidazol-4-one acetic acid salt]",180 nM
9,"CN1C(=O)C(c2ccc([Si](C)(C)C)cc2)(c2cccc(-c3cncc(C#N)c3)c2)N=C1N (stereo not shown) [Example 19, 5-[3-[2-amino-1-methyl-5-oxo-4-(4-trimethylsilylphenyl)imidazol-4-yl]phenyl]pyridine-3-carbonitrile acetic acid salt]",118 nM
10,"CN1C(=O)C(c2ccc([Si](C)(C)C)cc2)(c2cccc(-c3ccc(F)nc3)c2)N=C1N (stereo not shown) [Example 20, 2-amino-5-[3-(6-fluoropyridin-3-yl)phenyl]-3-methyl-5-(4-trimethylsilylphenyl)imidazol-4-one Acetic Acid Salt]",437 nM
11,"CN1C(=O)C(c2ccc([Si](C)(C)C)cc2)(c2cccc(-c3cnccc3C#N)c2)N=C1N (stereo not shown) [Example 21, 3-[3-[2-amino-1-methyl-5-oxo-4-(4-trimethylsilylphenyl)imidazol-4-yl]phenyl]pyridine-4-carbonitrile Acetic Acid Salt]",460 nM
12,"CN1C(=O)C(c2ccc([Si](C)(C)C)cc2)(c2cccc(-c3cnn(C)c3)c2)N=C1N (stereo not shown) [Example 22, 2-amino-3-methyl-5-[3-(1-methylpyrazol-4-yl)phenyl]-5-(4-trimethylsilylphenyl)imidazol-4-one Acetic Acid Salt]",2740 nM
13,"Cc1ncc(-c2cccc(C3(c4ccc([Si](C)(C)C)cc4)N=C(N)N(C)C3=O)c2)cn1 (stereo not shown) [Example 23, 2-amino-3-methyl-5-[3-(2-methylpyrimidin-5-yl)phenyl]-5-(4-trimethylsilylphenyl)imidazol-4-one acetic acid salt]",2260 nM
14,"CN1C(=O)C(c2ccc([Si](C)(C)C)cc2)(c2cccc(-c3cnccn3)c2)N=C1N (stereo not shown) [Example 24, 2-amino-3-methyl-5-(3-pyrazin-2-ylphenyl)-5-(4-trimethylsilylphenyl)imidazol-4-one]",80 nM
15,"CN1C(=O)C(c2ccc([Si](C)(C)C)cc2)(c2cccc(-c3cnc(F)nc3)c2)N=C1N (stereo not shown) [Example 25, 2-amino-5-[3-(2-fluoropyrimidin-5-yl)phenyl]-3-methyl-5-(4-trimethylsilylphenyl)imidazol-4-one]",460 nM
16,"CN1C(=O)C(c2cccc(-c3cncnc3)c2)(c2cccc([Si](C)(C)C)c2)N=C1N (stereo not shown) [Example 26, 2-amino-1-methyl-4-(3-(pyrimidin-5-yl)phenyl)-4-(3-(trimethylsilyl)phenyl)-1H-imidazol-5(4H)-one]",135 nM
17,"CN1C(=O)C(c2cccc(-c3cncc(Cl)c3)c2)(c2cccc([Si](C)(C)C)c2)N=C1N (stereo not shown) [Example 27, 2-amino-4-(3-(5-chloropyridin-3-yl)phenyl)-1-methyl-4-(3-(trimethylsilyl)phenyl)-1H-imidazol-5(4H)-one]",163 nM
18,"CN1C(=O)C(c2cccc(-c3ccc(F)nc3)c2)(c2cccc([Si](C)(C)C)c2)N=C1N (stereo not shown) [Example 28, 2-amino-4-(3-(6-fluoropyridin-3-yl)phenyl)-1-methyl-4-(3-(trimethylsilyl)phenyl)-1H-imidazol-5(4H)-one]",278 nM
19,"CN1C(=O)C(c2cccc(-c3cccnc3)c2)(c2cccc([Si](C)(C)C)c2)N=C1N (stereo not shown) [Example 29, 2-amino-1-methyl-4-(3-(pyridin-3-yl)phenyl)-4-(3-(trimethylsilyl)phenyl)-1H-imidazol-5(4H)-one]",202 nM
20,"CN1C(=O)C(c2cccc(-c3cccnc3F)c2)(c2cccc([Si](C)(C)C)c2)N=C1N (stereo not shown) [Example 30, 2-amino-4-(3-(2-fluoropyridin-3-yl)phenyl)-1-methyl-4-(3-(trimethylsilyl)phenyl)-1H-imidazol-5(4H)-one]",182 nM
21,"COc1cccc(-c2cccc(C3(c4cccc([Si](C)(C)C)c4)N=C(N)N(C)C3=O)c2)n1 (stereo not shown) [Example 31, 2-amino-4-(3-(6-methoxypyridin-2-yl)phenyl)-1-methyl-4-(3-(trimethylsilyl)phenyl)-1H-imidazol-5(4H)-one]",1530 nM
22,"CN1C(=O)C(c2cccc(-c3cnccn3)c2)(c2cccc([Si](C)(C)C)c2)N=C1N (stereo not shown) [Example 32, 2-amino-1-methyl-4-(3-(pyrazin-2-yl)phenyl)-4-(3-(trimethylsilyl)phenyl)-1H-imidazol-5(4H)-one]",86 nM
